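Step 1: Grow cells in 96-well plates. Step 2: Expose to compound for 48 hours at 5 concentrations. Step 3: Interpolate endpoints linearly; if unreached, use highest concentration. GI50 marks 50% less growth.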 The source made the active and inactive calls. Cut-off read from the data, not from the text of the source: active = GI50 up to about 1.1 µM and inactive = higher.
What was measured:
Assay in all cases: NCI tumour cell line growth inhibition, 48 h
786-0 = tested on: 786-0
A498 = tested on: A498
A549 = tested on: A549
ACHN = tested on: ACHN
BT-549 = tested on: BT-549
CAKI-1 = tested on: CAKI-1
CCRF-CEM = tested on: CCRF-CEM
COLO 205 = tested on: COLO 205
DLD-1 = tested on: DLD-1
DMS-273 = tested on: DMS-273
DU-145 = tested on: DU-145
EKVX = tested on: EKVX
HCC 2998 = tested on: HCC 2998
HCT-116 = tested on: HCT-116
HCT-15 = tested on: HCT-15
HL-60 = tested on: HL-60
HOP-18 = tested on: HOP-18
HOP-62 = tested on: HOP-62
HOP-92 = tested on: HOP-92
HT-29 = tested on: HT-29
Hs-578T = tested on: Hs-578T
IGROV-1 = tested on: IGROV-1
K562 = tested on: K562
KM-20L2 = tested on: KM-20L2
KM12 = tested on: KM12
LOX IMVI = tested on: LOX IMVI
LXFL 529 = tested on: LXFL 529
M14 = tested on: M14
M19-MEL = tested on: M19-MEL
MCF7 = tested on: MCF7
MDA-MB-231 = tested on: MDA-MB-231
MDA-MB-435 = tested on: MDA-MB-435
MDA-N = tested on: MDA-N
MOLT-4 = tested on: MOLT-4
Malme-3M = tested on: Malme-3M
NCI-H226 = tested on: NCI-H226
NCI-H23 = tested on: NCI-H23
NCI-H460 = tested on: NCI-H460
NCI-H522 = tested on: NCI-H522
NCI/ADR-RES = tested on: NCI/ADR-RES
OVCAR-3 = tested on: OVCAR-3
OVCAR-4 = tested on: OVCAR-4
OVCAR-5 = tested on: OVCAR-5
OVCAR-8 = tested on: OVCAR-8
PC-3 = tested on: PC-3
RPMI-8226 = tested on: RPMI-8226
RXF 393 = tested on: RXF 393
RXF 631 = tested on: RXF 631
SF-268 = tested on: SF-268
SF-295 = tested on: SF-295
SF-539 = tested on: SF-539
SK-MEL-28 = tested on: SK-MEL-28
SK-MEL-2 = tested on: SK-MEL-2
SK-MEL-5 = tested on: SK-MEL-5
SK-OV-3 = tested on: SK-OV-3
SN12C = tested on: SN12C
SNB-19 = tested on: SNB-19
SNB-75 = tested on: SNB-75
SNB-78 = tested on: SNB-78
SR = tested on: SR
SW-620 = tested on: SW-620
T47D = tested on: T47D
TK-10 = tested on: TK-10
U-251 = tested on: U-251
UACC-257 = tested on: UACC-257
UACC-62 = tested on: UACC-62
UO-31 = tested on: UO-31
XF498 = tested on: XF498

Measured: GI50

C=C(CN(C)C)C(=O)c1ccc(Oc2ccccc2)cc1
3.68 µM: HCT-15
active: CCRF-CEM 272 nM | COLO 205 1.04 µM | HL-60 0.695 µM | MOLT-4 0.356 µM | RPMI-8226 0.962 µM | SR 0.692 µM
inactive: 786-0 2.15 µM | A498 17.7 µM | A549 19.5 µM | ACHN 1.8 µM | BT-549 6.18 µM | CAKI-1 2.54 µM | DLD-1 2.22 µM | DMS-273 23.6 µM | DU-145 14.5 µM | EKVX 16.9 µM | HCC 2998 17.5 µM | HCT-116 2.16 µM | HOP-18 6.87 µM | HOP-62 19.7 µM | HOP-92 2.18 µM | HT-29 7.82 µM | Hs-578T 8.73 µM | IGROV-1 14.9 µM | K562 1.26 µM | KM-20L2 12.2 µM | KM12 12.8 µM | LOX IMVI 5.57 µM | LXFL 529 2.2 µM | M14 1.76 µM | M19-MEL 4.25 µM | MCF7 3.3 µM | MDA-MB-231 5.81 µM | MDA-MB-435 3.85 µM | MDA-N 3.02 µM | Malme-3M 3.85 µM | NCI-H226 13.6 µM | NCI-H23 7.71 µM | NCI-H460 27.3 µM | NCI-H522 1.55 µM | NCI/ADR-RES 6.75 µM | OVCAR-3 4.86 µM | OVCAR-4 6.19 µM | OVCAR-5 7.4 µM | OVCAR-8 3.28 µM | PC-3 3.98 µM | RXF 393 2.4 µM | RXF 631 19.3 µM | SF-268 14 µM | SF-295 16.7 µM | SF-539 3.13 µM | SK-MEL-28 7.66 µM | SK-MEL-2 9.2 µM | SK-MEL-5 7.21 µM | SK-OV-3 21.3 µM | SN12C 5.37 µM | SNB-19 9.64 µM | SNB-75 15.9 µM | SNB-78 16.3 µM | SW-620 1.31 µM | T47D 2.7 µM | TK-10 5.86 µM | U-251 10.3 µM | UACC-257 8.36 µM | UACC-62 4.39 µM | UO-31 3.53 µM | XF498 14.8 µM

O=C(O)/C(=C/c1ccccc1[N+](=O)[O-])c1cccs1
inactive: 786-0 > 100 µM | A498 > 100 µM | A549 > 100 µM | ACHN > 100 µM | CAKI-1 > 100 µM | COLO 205 > 100 µM | DLD-1 > 100 µM | DMS-273 > 100 µM | EKVX > 100 µM | HCC 2998 > 100 µM | HCT-116 > 100 µM | HL-60 > 100 µM | HOP-18 > 100 µM | HOP-62 > 100 µM | HT-29 > 100 µM | IGROV-1 > 100 µM | K562 > 100 µM | KM-20L2 > 100 µM | KM12 > 100 µM | LOX IMVI > 100 µM | LXFL 529 > 100 µM | M14 > 100 µM | M19-MEL > 100 µM | MOLT-4 > 100 µM | NCI-H226 > 100 µM | NCI-H23 > 100 µM | NCI-H460 > 100 µM | NCI-H522 > 100 µM | OVCAR-3 > 100 µM | OVCAR-4 > 100 µM | OVCAR-5 > 100 µM | OVCAR-8 > 100 µM | RPMI-8226 > 100 µM | RXF 631 > 100 µM | SF-268 > 100 µM | SF-295 > 100 µM | SF-539 > 100 µM | SK-MEL-28 > 100 µM | SK-MEL-2 > 100 µM | SK-MEL-5 > 100 µM | SK-OV-3 > 100 µM | SN12C > 100 µM | SNB-19 > 100 µM | SNB-75 > 100 µM | SNB-78 > 100 µM | SR > 100 µM | SW-620 > 100 µM | TK-10 > 100 µM | U-251 > 100 µM | UACC-257 > 100 µM | UACC-62 > 100 µM | UO-31 > 100 µM | XF498 > 100 µM
> 100 µM: HCT-15

From ChEMBL document CHEMBL1201862, “PubChem BioAssay data set” (2004)
